The source of these data is ChEMBL document CHEMBL2429821, “A Casein kinase 1/Checkpoint kinase 1 pyrazolo-pyridine protein kinase inhibitor as novel activator of the p53 pathway” (Bioorg Med Chem Lett, 2013).

Active and inactive are the calls of the source. No cut-off for these calls is given here.

Experiment [1] has as its target T1, Casein kinase I/MDM2 (Homo sapiens) (UniProt Q00987+P48729). Nature of the experiment: Inhibition of CK1-MDM2 complex in human A375 cells assessed as effect on p53 protein level at 0.2 to 80 uM after 48 hrs by immunoblotting analysis. The note with it: A-375. It counts as cell-based.
For experiment [2], the target named is T1, Casein kinase I/MDM2 (Homo sapiens). Nature of the experiment: Inhibition of CK1-MDM2 complex in human A375 cells assessed as effect on MDM2 protein level at 0.2 to 80 uM after 48 hrs by immunoblotting analysis. It counts as cell-based. As to conditions: A-375. For orientation: Immunoblotting shows a protein as a band on a membrane.
The target is the same in experiment [3]. Nature of the experiment: Inhibition of CK1-MDM2 complex in human A375 cells assessed as effect on p21 protein level at 0.2 to 80 uM after 48 hrs by immunoblotting analysis. Type of experiment: cell-based. As to conditions: A-375.
For experiment [4] the target is unchanged. Nature of the experiment: Inhibition of CK1-MDM2 complex in human A375 cells assessed as increase in p53 protein level at 0.2 to 40 uM after 24 hrs by immunoblotting analysis. Type of experiment: cell-based. As to conditions: A-375.
Experiment [5] deals with T2, Mitogen-activated protein kinase 14 (Homo sapiens, UniProt Q16539). Nature of the experiment: Inhibition of human p38alpha MAPK assessed as residual activity at 1 uM relative to control.
In experiment [6] the target is T2, Mitogen-activated protein kinase 14. Nature of the experiment: Inhibition of human p38alpha MAPK assessed as residual activity at 10 uM relative to control.
Experiment [7] has as its target T1, Casein kinase I/MDM2 (Homo sapiens). Nature of the experiment: Inhibition of CK1-MDM2 complex in human A375 cells assessed as effect on p21 protein level at 0.2 to 40 uM after 24 hrs by immunoblotting analysis. Type of experiment: cell-based. The note with it: A-375.
The subject of experiment [8] is A-375. Nature of the experiment: Cell cycle arrest in human A375 cells assessed as accumulation at G0-G1 phase at 10 uM after 48 hrs by FACS flow cytometric analysis (reference value: 55.4%). It counts as functional. For orientation: A flow cytometer gives signals particle by particle.
Experiment [9] relates to A-375. Nature of the experiment: Cell cycle arrest in human A375 cells assessed as accumulation at sub-G1 phase at 20 uM after 48 hrs by FACS flow cytometric analysis (reference value: 2.17%). It counts as functional.
The subject of experiment [10] is A-375. Nature of the experiment: Cell cycle arrest in human A375 cells assessed as accumulation at S phase at 40 uM after 48 hrs by FACS flow cytometric analysis (reference value: 25.1%). Type of experiment: functional.
Experiment [11] concerns A-375. Nature of the experiment: Cell cycle arrest in human A375 cells assessed as accumulation at G0-G1 phase at 5 uM after 48 hrs by FACS flow cytometric analysis (reference value: 55.4%). Type of experiment: functional.
Experiment [12] relates to A-375. Nature of the experiment: Cell cycle arrest in human A375 cells assessed as accumulation at sub-G1 phase at 5 uM after 48 hrs by FACS flow cytometric analysis (reference value: 2.17%). It counts as functional.
The subject of experiment [13] is A-375. Nature of the experiment: Cytotoxicity against human A375 cells assessed as reduction in cell number at 5 uM after 24 hrs by light microscopic analysis relative to control. Type of experiment: functional, cell-based.
Experiment [14] concerns A-375. Nature of the experiment: Cell cycle arrest in human A375 cells assessed as accumulation at S phase at 20 uM after 48 hrs by FACS flow cytometric analysis (reference value: 25.1%). Type of experiment: functional.
Experiment [15] relates to A-375. Nature of the experiment: Cell cycle arrest in human A375 cells assessed as accumulation at sub-G1 phase at 40 uM after 48 hrs by FACS flow cytometric analysis (reference value: 2.17%). It counts as functional.
Experiment [16] has as its target Fibroblast growth factor receptor 1 (Homo sapiens, UniProt P11362). Nature of the experiment: Inhibition of human FGFR1 in presence of 20 uM ATP.
The test system of experiment [17] is A-375. Nature of the experiment: Cell cycle arrest in human A375 cells assessed as accumulation at G2-M phase at 5 uM after 48 hrs by FACS flow cytometric analysis (reference value: 17.3%). Type of experiment: functional.
Experiment [18] concerns the target T1, Casein kinase I/MDM2 (Homo sapiens). Nature of the experiment: Inhibition of CK1-MDM2 complex in human A375 cells assessed as increase in p53 protein level at 0.2 to 5 uM after 48 hrs by immunoblotting analysis. It counts as cell-based. As to conditions: A-375.
The subject of experiment [19] is A-375. Nature of the experiment: Cell cycle arrest in human A375 cells assessed as accumulation at G2-M phase at 20 uM after 48 hrs by FACS flow cytometric analysis (reference value: 17.3%). Type of experiment: functional.
Experiment [20] deals with A-375. Nature of the experiment: Cell cycle arrest in human A375 cells assessed as accumulation at S phase at 5 uM after 48 hrs by FACS flow cytometric analysis (reference value: 25.1%). Type of experiment: functional.
Experiment [21] has as its target Mitogen-activated protein kinase 15 (Homo sapiens, UniProt Q8TD08). Nature of the experiment: Inhibition of human ERK8 in presence of 5 uM ATP.
For experiment [22], the system named is A-375. Nature of the experiment: Cell cycle arrest in human A375 cells assessed as accumulation at S phase at 10 uM after 48 hrs by FACS flow cytometric analysis (reference value: 25.1%). It counts as functional.
Experiment [23] has as its target T1, Casein kinase I/MDM2 (Homo sapiens). Nature of the experiment: Inhibition of CK1-MDM2 complex in human A375 cells assessed as increase in MDM2 protein level at 0.2 to 5 uM after 48 hrs by immunoblotting analysis. Type of experiment: cell-based. The note with it: A-375.
Experiment [24] deals with A-375. Nature of the experiment: Cell cycle arrest in human A375 cells assessed as accumulation at sub-G1 phase at 1 uM after 48 hrs by FACS flow cytometric analysis (reference value: 2.17%). It counts as functional.
In another experiment the test system is HCT-116. Nature of the experiment: Cytotoxicity against p53-deficient human HCT116 cells assessed as cell viability at 1 to 32 uM after 24 hrs by MTT assay. Type of experiment: functional, cell-based. (In general: Tetrazolium dyes change colour on reduction, which living cells bring about.)
Experiment [25] concerns A-375. Nature of the experiment: Cell cycle arrest in human A375 cells assessed as accumulation at G0-G1 phase at 20 uM after 48 hrs by FACS flow cytometric analysis (reference value: 55.4%). It counts as functional.

T1 sequence (P48729 whole entry, looked up): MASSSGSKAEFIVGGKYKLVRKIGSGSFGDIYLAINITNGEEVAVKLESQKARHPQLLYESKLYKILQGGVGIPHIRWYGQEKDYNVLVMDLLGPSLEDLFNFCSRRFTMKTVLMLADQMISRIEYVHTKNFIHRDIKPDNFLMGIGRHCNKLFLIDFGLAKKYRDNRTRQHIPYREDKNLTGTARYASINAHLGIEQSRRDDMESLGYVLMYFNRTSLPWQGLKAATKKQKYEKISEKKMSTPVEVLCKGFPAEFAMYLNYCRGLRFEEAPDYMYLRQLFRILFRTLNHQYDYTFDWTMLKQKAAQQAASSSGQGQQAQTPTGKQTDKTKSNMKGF
T1 sequence (Q00987 whole entry, looked up): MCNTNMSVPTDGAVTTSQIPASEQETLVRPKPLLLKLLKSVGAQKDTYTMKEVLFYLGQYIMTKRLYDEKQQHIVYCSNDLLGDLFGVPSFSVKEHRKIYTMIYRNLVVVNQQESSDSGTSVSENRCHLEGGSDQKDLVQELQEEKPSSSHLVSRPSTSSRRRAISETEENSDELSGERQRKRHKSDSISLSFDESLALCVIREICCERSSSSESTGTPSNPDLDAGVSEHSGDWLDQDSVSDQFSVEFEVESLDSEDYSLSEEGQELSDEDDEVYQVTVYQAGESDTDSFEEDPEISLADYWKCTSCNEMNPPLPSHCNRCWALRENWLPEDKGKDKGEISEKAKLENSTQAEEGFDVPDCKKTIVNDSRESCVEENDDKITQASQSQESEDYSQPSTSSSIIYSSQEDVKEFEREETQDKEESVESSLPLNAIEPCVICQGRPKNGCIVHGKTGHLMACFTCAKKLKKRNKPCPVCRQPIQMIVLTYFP
T2 sequence (Q16539 whole entry): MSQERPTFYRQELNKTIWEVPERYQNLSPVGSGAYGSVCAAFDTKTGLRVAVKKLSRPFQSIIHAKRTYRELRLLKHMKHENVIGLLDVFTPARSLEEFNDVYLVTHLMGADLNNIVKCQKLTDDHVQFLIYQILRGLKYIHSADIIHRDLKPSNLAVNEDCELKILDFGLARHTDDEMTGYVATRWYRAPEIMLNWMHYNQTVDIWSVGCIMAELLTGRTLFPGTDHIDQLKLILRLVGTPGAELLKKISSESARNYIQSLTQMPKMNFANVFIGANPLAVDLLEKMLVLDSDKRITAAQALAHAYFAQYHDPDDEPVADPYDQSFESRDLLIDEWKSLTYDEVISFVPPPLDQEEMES
Chain of Fibroblast growth factor receptor 1 (P11362 whole entry): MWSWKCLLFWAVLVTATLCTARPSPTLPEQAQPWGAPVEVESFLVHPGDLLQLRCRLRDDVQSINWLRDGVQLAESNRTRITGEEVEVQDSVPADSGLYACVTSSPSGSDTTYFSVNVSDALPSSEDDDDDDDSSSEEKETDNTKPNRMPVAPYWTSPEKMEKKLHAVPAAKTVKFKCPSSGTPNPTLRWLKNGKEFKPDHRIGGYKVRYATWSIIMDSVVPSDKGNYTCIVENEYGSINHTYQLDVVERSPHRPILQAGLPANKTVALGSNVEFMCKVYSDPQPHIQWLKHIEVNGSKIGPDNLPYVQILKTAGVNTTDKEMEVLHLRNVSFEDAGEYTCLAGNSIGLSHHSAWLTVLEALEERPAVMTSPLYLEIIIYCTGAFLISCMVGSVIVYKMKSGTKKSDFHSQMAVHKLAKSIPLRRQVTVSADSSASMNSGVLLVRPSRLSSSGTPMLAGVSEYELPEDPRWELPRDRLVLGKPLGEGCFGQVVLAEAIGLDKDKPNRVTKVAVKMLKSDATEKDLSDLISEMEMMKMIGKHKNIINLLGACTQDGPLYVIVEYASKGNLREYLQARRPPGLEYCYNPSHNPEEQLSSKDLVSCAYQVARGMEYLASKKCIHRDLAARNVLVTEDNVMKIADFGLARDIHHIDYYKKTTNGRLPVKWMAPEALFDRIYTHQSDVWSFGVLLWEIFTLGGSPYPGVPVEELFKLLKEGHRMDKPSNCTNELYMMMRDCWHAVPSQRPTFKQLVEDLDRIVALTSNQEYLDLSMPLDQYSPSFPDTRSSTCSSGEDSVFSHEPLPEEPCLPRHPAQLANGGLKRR
Chain of Mitogen-activated protein kinase 15 (Q8TD08 whole entry): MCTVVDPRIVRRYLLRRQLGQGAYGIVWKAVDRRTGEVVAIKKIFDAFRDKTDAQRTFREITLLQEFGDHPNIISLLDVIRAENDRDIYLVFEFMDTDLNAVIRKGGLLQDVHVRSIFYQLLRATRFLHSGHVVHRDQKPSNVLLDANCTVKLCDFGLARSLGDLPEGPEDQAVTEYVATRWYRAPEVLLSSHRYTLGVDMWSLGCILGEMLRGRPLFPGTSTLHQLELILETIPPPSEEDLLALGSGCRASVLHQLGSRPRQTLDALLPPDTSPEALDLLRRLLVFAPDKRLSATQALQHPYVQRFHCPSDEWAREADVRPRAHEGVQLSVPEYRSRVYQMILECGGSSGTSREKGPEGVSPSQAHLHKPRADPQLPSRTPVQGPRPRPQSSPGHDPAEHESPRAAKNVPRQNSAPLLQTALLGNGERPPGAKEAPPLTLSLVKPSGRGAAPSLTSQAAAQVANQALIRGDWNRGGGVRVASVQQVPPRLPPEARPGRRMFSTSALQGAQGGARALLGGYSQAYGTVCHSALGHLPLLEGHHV

For the molecule `CC(=O)Nc1nccc(-c2c(-c3ccccc3)noc2C)n1`, the inhibition entry in experiment [1], in experiment [2] and in experiment [3] was “inactive” in each case.

On to `CCCC(=O)Nc1n[nH]c2ncc(-c3cccnc3)cc12`, for which the inhibition result in experiment [4] is “Active”. Besides, the Activity in experiment [5] came out at 84%; in experiment [6], 91%. Further, in experiment [7], the inhibition entry is “inactive”.

The term IC50 denotes the concentration that gives 50% inhibition. Take `CC(=O)Nc1cccc(-c2cnc3[nH]nc(C)c3c2)c1`: the Activity was 39.6% in the experiment on A-375 [8]; 50.5% with A-375 [9]; 14% in the experiment on A-375 [10]; 50.8% in the experiment on A-375 [11]; 19.1% in the experiment with A-375 [12]; 14.2% with A-375 [14]. Besides, the Activity is on record as 56.7% in the experiment on A-375 [15]; 15.9% in the experiment with A-375 [17]; 9.65% in the experiment on A-375 [19]; 13.7% in the experiment on A-375 [20]; 12.6% with A-375 [22]; 2.37% in the experiment with A-375 [24]. The Activity in the experiment with A-375 [25] was found to be 25.1%. Moreover, the outcome in the experiment with A-375 [13] and in the experiment on HCT-116 was Active. The IC50 in [16] stood at 6 µM; in [21], 0.4 µM. The inhibition entry in experiment [18] and in experiment [23] was “Active” in each case.
